Values quoted from earlier work, collected in patent US20050256097A1, “Pharmaceutical solution formulations containing 17-AAG” (Kosan Biosciences, Inc., priority 2004, published 2005).

Row | water solubility (in words) | water solubility (neutral pH) | Compound
1 | very poor water solubility | about 0.1 mg/mL | C=CCNC1=C2C[C@@H](C)C[C@H](OC)[C@H](O)[C@@H](C)/C=C(\C)[C@H](OC(N)=O)[C@@H](OC)/C=C\C=C(/C)C(=O)NC(=CC1=O)C2=O [Sample 17-AAG, 17-allylamino-17-demethoxygeldanamycin]
2 | very poor water solubility |  | COC1=C2C[C@@H](C)C[C@H](OC)[C@H](O)[C@@H](C)/C=C(\C)[C@H](OC(N)=O)[C@@H](OC)/C=C\C=C(/C)C(=O)NC(=CC1=O)C2=O [geldanamycin, Geldanamycin]

Row | Compound | water solubility (in words) | water solubility (neutral pH)
3 | COC1/C=C\C=C(/C)C(=O)NC2=CC(=O)C(NCCN(C)C)=C(C[C@@H](C)C[C@H](OC)[C@H](O)[C@@H](C)/C=C(\C)[C@@H]1OC(N)=O)C2=O (stereo partly shown) [Sample 17-DMAG, 17-(2-dimethylaminoethyl)amino-17-demethoxygeldanamycin] | more soluble | 
